Data taken from patent US8273775B2, “Non-steroidal brassinosteroid mimetic” (priority 2006, dated 2012).

System: gene expression in Col-0 seedling shoots
Test: Microarray analysis (ATH1 Affymetrix) after BL or abrasin treatment
Format: in vivo, Arabidopsis
Description: FIG. 14: Clustering of gene expression profiles by QT-clust analysis. Clusters illustrating the major patterns of the data sets. Points: BIK-30: 30 μM abrasin 30 min; BL-30: 1 μM brassinolide 30 min; DMSO-30: control DMSO 30 min; BIK-120: 30 μM abrasin 120 min; BL-120: 1 μM brassinolide 120 min; DMSO-120: control DMSO 120 min.
Col-0 seeds were germinated vertically on ½ MS medium for 7 days under 16 h light/8 h dark cycles. The seedlings were overlaid with liquid ½ MS medium containing 1 μM brassinolide (BL, Fuji Chemical Industries, Ltd., Toyama, Japan), 30 μM abrasin (BIK, ChemBridge Corporation) and DMSO and treated for 30 and 120 min. The shoot parts were collected for RNA isolation. All sampling points were performed in three independent experiments. RNA was extracted using RNeasy kit (Qiagene). […] total RNA per array was used to hybridise the ATH1 Affymetrix Arabidopsis arrays according to standard procedure. The overrepresentation analyses were performed using BiNGO software (Maere et al., 2005).
We performed a microarray analysis using the Arabidopsis whole genome chip (Affymetix) to determine whether abrasin activated the expression of BR-inducible genes at transcriptional level. Wild-type Col-0 seedlings were exposed to 1 μM BL, 30 μM ABRASIN and DMSO (mock-treatment) for two time points (30 min and 120 min) and the shoot parts were collected for RNA isolation. The analysis of the variance of the normalized gene expression data took in account the variability parameters affecting the expression level: type of hormone treatment, duration of treatment and the interaction between these two.

O=C(O)CCC(=O)Nc1ccc(Br)cn1 [abrasin, 4-[(5-bromo-2-pyridinyl)amino]-4-oxobutanoic acid]
Fold-change of gene AT2G42380 (bZIP transcription factor family protein) (30 min, 265877_at, Cluster 6): 1.65
Fold-change of gene AT2G45080 (cyclin family protein) (30 min, 266124_at, Cluster 8): 0.77
Fold-change AT1G04330 expressed protein (120 min): 4.41
Fold-change AT1G05470 endonuclease/exonuclease/phosphatase family protein (120 min): 2.59
Fold-change AT1G06520 Encodes a membrane associated mitochondrial localized protein (120 min): 2.28
Fold-change AT1G06570 4-hydroxyphenylpyruvate dioxygenase (HPD) (120 min): 0.29
Fold-change AT1G10550 xyloglucan:xyloglucosyl transferase (120 min): 1.66
Fold-change AT1G12710 F-box family protein (120 min): 1.41
Fold-change AT1G12750 rhomboid family protein (120 min): 1.60
Fold-change AT1G14130 2-oxoglutarate-dependent dioxygenase (120 min): 2.47
Fold-change AT1G14700 purple acid phosphatase (120 min): 0.47
Fold-change AT1G16640 transcriptional factor B3 family protein (120 min): 2.20
Fold-change AT1G17230 leucine-rich repeat family protein (120 min): 0.22
Fold-change AT1G18020; AT1G17990 [AT1G18020, 12-oxophytodienoate reductase, (120 min): 1.78
Fold-change AT1G19320 pathogenesis-related thaumatin family protein (120 min): 0.50
Fold-change AT1G20350 mitochondrial import inner membrane translocase subunit (120 min): 2.67
Fold-change AT1G21050 expressed protein (120 min): 0.14
Fold-change AT1G21760 F-box family protein (120 min): 0.46
Fold-change AT1G22360 UDP-glucoronosyl/UDP-glucosyl transferase family protein (120 min): 0.32
Fold-change AT1G23080 auxin efflux carrier protein (PIN7) (120 min): 0.33
Fold-change AT1G26800 zinc finger (C3HC4-type RING finger) family protein, (120 min): 4.39
Fold-change AT1G27730 zinc finger (C2H2 type) family protein (120 min): 1.06
Fold-change AT1G28130 encodes an IAA-amido synthase (120 min): 0.40
Fold-change AT1G28190 expressed protein (120 min): 1.65
Fold-change AT1G28480 glutaredoxin family protein (120 min): 3.97
Fold-change AT1G31040 zinc-binding protein-related (120 min): 4.37
Fold-change AT1G31310 hydroxyproline-rich glycoprotein family protein (120 min): 2.45
Fold-change AT1G31770 ABC transporter family protein (120 min): 0.50
Fold-change AT1G32190 expressed protein (120 min): 0.07
Fold-change AT1G32690 expressed protein (120 min): 0.26
Fold-change AT1G36940 expressed protein (120 min): 0.32
Fold-change AT1G49780 U-box domain-containing protein (120 min): 0.56
Fold-change AT1G53870; AT1G53890 [AT1G53870, expressed protein (120 min): 0.51
Fold-change AT1G54050 17.4 kDa class III heat shock protein (HSP17.4-CIII) (120 min): 2.86
Fold-change AT1G54200 expressed protein (120 min): 2.19
Fold-change AT1G55920 serine O-acetyltransferase (120 min): 2.16
Fold-change AT1G57560 myb family transcription factor (MYB50) (120 min): 2.65
Fold-change AT1G59590 expressed protein (120 min): 2.08
Fold-change AT1G59660 nucleoporin family proteinmily (120 min): 2.94
Fold-change AT1G62300 WRKY family transcription factor (120 min): 0.71
Fold-change AT1G63050 membrane bound O-acyl transferase (MBOAT) family protein (120 min): 0.27
Fold-change AT1G66160 U-box domain-containing protein, (120 min): 1.91
Fold-change AT1G66890 expressed protein (120 min): 0.14
Fold-change AT1G68330 expressed protein (120 min): 2.78
Fold-change AT1G68810 basic helix-loop-helix (bHLH) family protein (120 min): 0.41
Fold-change AT1G69160 expressed protein (120 min): 0.33
Fold-change AT1G70990 proline-rich family protein (120 min): 3.50
Fold-change AT1G71030 Encodes a putative myb family transcription factor (120 min): 0.46
Fold-change AT1G72060 expressed protein (120 min): 5.97
Fold-change AT1G72180 leucine-rich repeat transmembrane protein kinase (120 min): 0.11
Fold-change AT1G72800 nuM1-related, contains (120 min): 2.15
Fold-change AT1G75270 dehydroascorbate reductase (120 min): 2.62
Fold-change AT1G75500 nodulin MtN21 family protein (120 min): 0.37
Fold-change AT1G76240 expressed protein, (120 min): 0.07
Fold-change AT1G76410 zinc finger (C3HC4-type RING finger) (120 min): 0.16
Fold-change AT1G79110 expressed protein (120 min): 0.45
Fold-change AT1G79630 protein phosphatase 2C family protein (120 min): 0.35
Fold-change AT1G80440 kelch repeat-containing F-box family protein (120 min): 2.89
Fold-change AT2G01300 expressed protein (120 min): 3.12
Fold-change AT2G01990 expressed protein, (120 min): 2.56
Fold-change AT2G04240 zinc finger (C3HC4-type RING finger) family protein (120 min): 1.72
Fold-change AT2G05540 glycine-rich protein (120 min): 0.54
Fold-change AT2G12290; AT4G19700 [AT2G12290, expressed protein]; [AT4G19700, expressed protein] (120 min): 0.53
Fold-change AT2G18010 auxin-responsive family protein (SAUR10) (120 min): 3.94
Fold-change AT2G19800 expressed protein (120 min): 2.22
Fold-change AT2G22860 phytosulfokines 2 (PSK2) (120 min): 0.19
Fold-change AT2G23180 cytochrome P450, putative (120 min): 0.36
Fold-change AT2G23320 WRKY family transcription factor (120 min): 1.19
Fold-change AT2G26530 expressed protein (120 min): 1.99
Fold-change AT2G26710 cytochrome p450 family (BAS1) (120 min): 2.26
Fold-change AT2G28510 Dof-type zinc finger domain-containing protein (120 min): 1.19
Fold-change AT2G29340 short-chain dehydrogenase/reductase (SDR) family protein (120 min): 3.73
Fold-change AT2G29990 pyridine nucleotide-disulphide oxidoreductase family protein (120 min): 1.38
Fold-change AT2G30070 potassium transporter (KUP1) (120 min): 0.22
Fold-change AT2G31230 encodes a member of the ERF (ethylene response factor) (120 min): 3.17
Fold-change AT2G34650 protein kinase PINOID (PID) (120 min): 2.52
Fold-change AT2G36220 expressed protein (120 min): 2.76
Fold-change AT2G37590 Dof-type zinc finger domain-containing protein (120 min): 5.81
Fold-change AT2G38470 WRKY family transcription factor (120 min): 1.34
Fold-change AT2G39710 aspartyl protease family protein (120 min): 2.52
Fold-change AT2G40340; AT2G40350 [AT2G40340, encodes a member of the DREB subfamily A-2 of ERF/AP2 (120 min): 3.20
Fold-change AT2G41250 haloacid dehalogenase-like hydrolase family protein (120 min): 0.33
Fold-change AT2G41640 expressed protein (120 min): 2.53
Fold-change AT2G42280 basic helix-loop-helix (bHLH) family protein (120 min): 0.28
Fold-change AT2G43060 expressed protein, similar to cDNA bHLH transcription factor (120 min): 0.25
Fold-change AT2G43280 far-red impaired responsive family protein (120 min): 0.48
Fold-change AT2G43290 calmodulin-like protein (MSS3) (120 min): 1.45
Fold-change AT2G44130 kelch repeat-containing F-box family protein (120 min): 7.72
Fold-change AT2G44500 expressed protein (120 min): 2.19
Fold-change AT2G45210 auxin-responsive protein-related (120 min): 0.24
Fold-change AT2G45680 TCP family transcription factor (120 min): 0.46
Fold-change AT2G46225 Encodes a subunit of the WAVE complex (120 min): 0.58
Fold-change AT2G47440 DNAJ heat shock N-terminal domain-containing protein (120 min): 1.64
Fold-change AT3G04210 disease resistance protein (TIR-NBS class), putative, (120 min): 3.17
Fold-change AT3G09920 phosphatidylinositol-4-phosphate 5-kinase family protein (120 min): 1.07
Fold-change AT3G12920 expressed protein (120 min): 0.31
Fold-change AT3G13040 myb family transcription factor (120 min): 0.48
Fold-change AT3G13510 expressed protein (120 min): 0.42
Fold-change AT3G13980 expressed protein (120 min): 0.08
Fold-change AT3G14370 protein kinase family protein (120 min): 2.16
Fold-change AT3G14560 expressed protein (120 min): 0.35
Fold-change AT3G16570 rapid alkalinization factor (RALF) family protein (120 min): 0.36
Fold-change AT3G17860 expressed protein (120 min): 0.45
Fold-change AT3G18830 polyol/cyclitol/monosaccharide-H+-symporte (120 min): 2.60
Fold-change AT3G19380 U-box domain-containing protein (120 min): 0.48
Fold-change AT3G23030 auxin-responsive protein/indoleacetic acid-induced protein 2 (IAA2) (120 min): 0.25
Fold-change AT3G23550 MATE efflux family protein (120 min): 0.38
Fold-change AT3G25710 basic helix-loop-helix (bHLH) family protein (120 min): 0.10
Fold-change AT3G25900 homocysteine S-methyltransferase 1 (HMT-1) (120 min): 2.67
Fold-change AT3G26910 hydroxyproline-rich glycoprotein family protein (120 min): 1.85
Fold-change AT3G30180 cytochrome p450 enzyme (120 min): 0.06
Fold-change AT3G46880 expressed protein, (120 min): 1.51
Fold-change AT3G47800 aldose 1-epimerase family protein (120 min): 0.57
Fold-change AT3G48970 copper-binding family protein (120 min): 0.38
Fold-change AT3G49810 U-box domain-containing protein (120 min): 1.12
Fold-change AT3G50650 scarecrow-like transcription factor 7 (SCL7) (120 min): 2.48
Fold-change AT3G50660 steroid 22-alpha-hydroxylase (CYP90B1) (DWF4) (120 min): 0.02
Fold-change AT3G50750 brassinosteroid signalling positive regulator-related (BEH1) (120 min): 0.31
Fold-change AT3G52490 heat shock protein-related (120 min): 2.41
Fold-change AT3G53810 lectin protein kinase (120 min): 2.23
Fold-change AT3G54950 patatin-related, (120 min): 0.43
Fold-change AT3G55120 chalcone-flavanone isomerase (120 min): 0.39
Fold-change AT3G55150 exocyst subunit EXO70 family protein (120 min): 0.48
Fold-change AT3G55840 expressed protein (120 min): 6.96
Fold-change AT3G61460 zinc finger (C3HC4-type RING finger) family protein (BRH1) (120 min): 0.32
Fold-change AT3G63300 expressed protein (120 min): 2.07
Fold-change AT4G01680 myb family transcription factor (MYB55) (120 min): 0.14
Fold-change AT4G02410 lectin protein kinase family protein (120 min): 1.55
Fold-change AT4G08040 1-aminocyclopropane-1-carboxylate synthase, putative (120 min): 0.02
Fold-change AT4G09460 myb family transcription factor (120 min): 3.27
Fold-change AT4G12390 invertase/pectin methylesterase inhibitor family protein (120 min): 0.44
Fold-change AT4G12410 auxin-responsive family protein (120 min): 0.31
Fold-change AT4G14130 xyloglucan:xyloglucosyl transferase (120 min): 0.02
Fold-change AT4G15975 zinc finger (C3HC4-type RING finger) family protein (120 min): 3.28
Fold-change AT4G16146 expressed protein (120 min): 0.49
Fold-change AT4G16563 aspartyl protease family protein (120 min): 1.65
Fold-change AT4G16670 expressed protein (120 min): 0.34
